Test results reported in patent US20210247385A1, “METHODS FOR ASSESSING TRANSENDOTHELIAL BARRIER INTEGRITY” (Hoffmann-La Roche Inc., priority 2018, published 2021).

Columns and labels:
hPSC-ECs (GFP+ cells) = assay: Electric cell-substrate impedance sensing (ECIS) of transendothelial barrier integrity; format: cell-based, human; conditions: for effect on EC barrier in co-application with VEGFA (functional barrier assays): under both conditions, FIG. 5
Description: Electric cell-substrate impedance sensing. TBI was detected in real time using the ECIS® Z-theta system (Applied Biophysics, McAlister G C, Nusinow D P, Jedrychowski M P, Wuhr M, Huttlin E L, Erickson B K, et al. Analytical chemistry. 2014; 86(14):7150-8.) using 96 well array plates (96widf, Applied Biophysics) at 250 Hz frequency. Plates were coated with 100 μL of fibronectin (25 μg/mL; for 30 min at RT), fibronectin was replaced by complete media and electrodes were stabilized for 1 h on the system. Afterwards, media was removed and hPSC-ECs were seeded (10,000 cells per well). Cells were left for 2 days to reach full confluency and then treated with compounds with or without VEGFA (50 ng/mL). All the treatments were performed in triplicates.

[1] = system: CLDN5 transcriptional reporter (CLDN5-P2A-GFP) in hPSC-EC; assay: CLDN5-GFP reporter, percentage of GFP+ cells by FACS; format: cell-based, human
Description: Fluorescence activated cell sorting and analysis. Human PSC-EC were dissociated from plates by Accutase (StemCell Technologies) and filtered before sorting with 30 μm filters (Miltenyi Biotec). Dissociated cells were kept in full media during sorting and sorted in cooled collection tubes with complete EC media supplemented with 20% FBS and 25 mM HEPES. Sorting was performed with BD FACS ARIA III (BD Biosciences) using 4-way purity precision mode. FACS plots were generated by Flowjo_V10 software. In case of RNA-seq minimum of 100,000 cells was sorted. After sorting, cells were spun down (610 g, 10 min) and lysed in 650 μL RLT lysis buffer (Qiagen)+β-mercaptoethanol (1%) and subsequently vortexed for 1 min at room temperature and snap frozen. In case of mass spectrometry analysis minimum of 10^6 cells was sorted, cells were washed with PBS^−(Life Technologies), spun down (110 g, 3 min), PBS was removed and cell pellets snap frozen.
Compound library screening with fluorescence activated cell readout. Compounds were plated in replicate plates, and each plate had DMSO treated controls. ECs (10,000 cells per well) were seeded on fibronectin coated plates in full media. Cells were treated 2 days after seeding and the FACS measurement using MACS quant analyzer 10 (Miltenyi biotec) was performed. Screen data was analyzed in Flowjo_V10 software.

TGFBR2 [2] = target: T1, TGFBR2 (Homo sapiens, UniProt P37173); assay: Kd determination (DiscoveRx) TGFBR2; format: binding; conditions: data not shown
T1 construct: purchased DiscoveRx
Description: (§1) Competitive protein kinase binding assays. Kinome scan (468 kinases) was performed by scanMAX (DiscoveRx) at 1 μM. Kinome scan procedure has been followed as described in (Bemas M J, Cardoso F L, Daley S K, Weinand M E, Campos A R, Ferreira A J, et al. Nature protocols. 2010; 5(7):1265-72.). Kd determination for ACVR1B, TGFRB1, TGFBR2 and KDR has been done in duplicates with 11-point 3-fold serial dilution starting from 30 μM (DiscoveRx). All the compounds were dissolved in DMSO. Binding constants (Kds) were calculated with a standard dose-response curve using the Hill equation and the The Hill Slope was set to −1. Curves were fitted using a non-linear least square fit with the Levenberg-Marquardt algorithm.

BMPR1B = target: T2, BMPR1B (Homo sapiens, UniProt O00238); assay: Kinome scan (scanMAX, competitive protein kinase binding) BMPR1B; conditions: 1 μM; data not shown
T2 construct: purchased DiscoveRx
Description: as §1

TGFBR2 [3] = target: T1, TGFBR2; assay: Kinome scan (scanMAX, competitive protein kinase binding) TGFBR2; conditions: 1 μM; data not shown
Description: as §1

hPSC-EC = system: hPSC-EC
Description: RNA isolation. RNA isolation from FACS sorted or cultured cells was performed using RNeasy micro kit or RNeasy mini kit (both Qiagen) or automated Maxwell Total RNA purification kit (Promega), all procedures included DNAse I digestion. Procedures were followed as described in the kit protocols.
RNA-sequencing and analysis. Total RNA from the FACS sorted or cell cultured treated samples was subjected to oligo (dT) capture and enrichment, and the resulting mRNA fraction was used to construct complementary DNA libraries. Transcriptome sequencing (RNA-seq) was performed on the Illumina HiSeq platform using the standard protocol (TruSeq Stranded Total RNA Library, Illumina) that generated approximately 30 million reads of 50 base-pair per sample. FACS sorted experiments for GFP+ and GFP− cells were performed using 6 replicates each from 2 different clones. The RNA-seq reads were then mapped to the human genome (NCBI build 37) by using GSNAP (Wu T D, Nacu S. Bioinformatics (Oxford, England). 2010; 26(7):873-81.). Comparison was done between 12 samples of GFP+ and GFP− samples from two clones. TGFBR2 inhibitor treated hPSC-EC samples were mapped to the human genome (hg19/Refseq) using STAR (Dobin A, Davis Calif., Schlesinger F, Drenkow J, Zaleski C, Jha S, et al. Bioinformatics (Oxford, England). 2013; 29(1):15-21.) and counting was performed using union mode of HtSeq (Anders S, Pyl P T, Huber W. Bioinformatics (Oxford, England). 2015; 31(2):166-9.). Differential expression was performed using Deseq2 (Dobin A, Davis C A, Schlesinger F, Drenkow J, Zaleski C, Jha S, et al. Bioinformatics (Oxford, England). 2013; 29(1):15-21.). Gene set enrichment analysis was performed using GSEA (Subramanian A, Tamayo P, Mootha V K, Mukherjee S, Ebert B L, Gillette M A, et al. Proceedings of the National Academy of Sciences of the United States of America. 2005; 102(43):15545-50.) using Hallmarks MsigDb database (Liberzon A, Birger C, Thorvaldsdottir H, Ghandi M, Mesirov J P, Tamayo P. Cell systems. 2015; 1(6):417-25.) using weighted p2 analysis, following default conditions with ignoring gene sets smaller than 15 and larger than 5000 genes.

[4] = RNA-seq 8 h and 48 h after treatment

T1 sequence (P37173 23-567): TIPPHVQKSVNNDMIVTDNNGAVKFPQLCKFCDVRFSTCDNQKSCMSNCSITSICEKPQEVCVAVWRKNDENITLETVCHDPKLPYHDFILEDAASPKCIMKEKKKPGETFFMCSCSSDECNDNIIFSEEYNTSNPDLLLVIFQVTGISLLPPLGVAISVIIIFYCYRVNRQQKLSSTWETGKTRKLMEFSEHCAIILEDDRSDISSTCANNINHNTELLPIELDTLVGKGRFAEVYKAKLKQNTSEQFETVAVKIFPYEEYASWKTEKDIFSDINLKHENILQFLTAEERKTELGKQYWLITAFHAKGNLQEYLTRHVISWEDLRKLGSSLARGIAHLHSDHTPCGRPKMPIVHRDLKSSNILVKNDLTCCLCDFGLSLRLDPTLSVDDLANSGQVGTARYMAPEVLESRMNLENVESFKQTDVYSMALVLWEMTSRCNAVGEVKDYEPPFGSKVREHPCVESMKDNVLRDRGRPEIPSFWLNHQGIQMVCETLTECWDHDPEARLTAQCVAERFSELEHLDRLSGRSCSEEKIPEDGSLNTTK
T2 sequence (O00238 14-502): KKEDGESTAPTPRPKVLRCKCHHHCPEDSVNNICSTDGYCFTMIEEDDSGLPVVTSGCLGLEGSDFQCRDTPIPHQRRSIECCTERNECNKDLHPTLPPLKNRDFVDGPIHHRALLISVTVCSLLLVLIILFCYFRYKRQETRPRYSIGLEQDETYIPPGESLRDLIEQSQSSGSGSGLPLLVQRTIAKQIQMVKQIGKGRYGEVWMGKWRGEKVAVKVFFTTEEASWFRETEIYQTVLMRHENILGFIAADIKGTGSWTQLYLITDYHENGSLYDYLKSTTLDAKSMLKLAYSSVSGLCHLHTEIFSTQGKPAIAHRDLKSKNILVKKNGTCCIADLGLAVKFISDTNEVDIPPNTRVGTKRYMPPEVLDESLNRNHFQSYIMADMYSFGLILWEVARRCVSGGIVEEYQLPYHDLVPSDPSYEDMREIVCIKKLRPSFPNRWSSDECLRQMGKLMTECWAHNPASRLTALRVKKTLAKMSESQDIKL

In the case of `CCN(CC)CCNC(=O)c1c(C)[nH]c(/C=C2\C(=O)Nc3ccc(F)cc32)c1C` [SU11248], the “resistance to barrier breakdown by VEGFA, ECIS” value (hPSC-ECs (GFP+ cells); cells treated with 5 μM SU11248, VEGFA 50 ng/mL) is reported as “resistant to barrier breakdown by VEGFA”, the “% of GFP+ cells” value ([1]; 5 μM SU11248 for 2 days, FACS) is reported as 99% and the “change in GFP+ (reporter gene positive) cells upon treatment” value ([1]; FACS 2 days after treatment, VEGFA 50 ng/mL) is reported as “increase of reporter gene positive cells”.
In the case of `O=C(NC1CCOCC1)c1ccc(-c2cc(-c3c[nH]nc3-c3ccccn3)ccn2)cc1` [GW788388, 4-[4-[3-(2-Pyridinyl)-1H-pyrazol-4-yl]-2-pyridinyl]-N-(tetrahydro-2H-pyran-4-yl)-benzamide], the “Kd (inhibitory activities) for TGFBR2” value (TGFBR2 [2]) is reported as “nanomolar inhibitory activities”, the “effect on EC barrier in co-application with VEGFA (functional barrier assays)” value (“effect on EC barrier in co-application” below) (hPSC-ECs (GFP+ cells); VEGFA 50 ng/mL) is reported as “prevented barrier disruption with VEGFA” and the “inhibition activity on BMPR1B, large kinase panel” value (BMPR1B) is reported as “weaker inhibition activity”. For the same compound, the “inhibitory activity on TGFBR2, large kinase panel” value (TGFBR2 [3]) was “strong inhibitory activity”.
With `Cc1cccc(-c2n[nH]cc2-c2ccc3ncccc3n2)n1` [Repsox, 2-[3-(6-Methyl-2-pyridinyl)-1H-pyrazol-4-yl]-1,5-naphthyridine] the “Kd (inhibitory activities) for TGFBR2” value (TGFBR2 [2]) was “nanomolar inhibitory activities”, the “BMP signaling (ENG, LRG1 and BMPR2)” value (hPSC-EC; [4]) was “potently inhibited” and the CLDN5 expression (hPSC-EC; [4]) was “strong upregulation”. For the same compound, the GSK3ß expression (hPSC-EC; [4]) was “downregulation”, the PLVAP expression (hPSC-EC; [4]) was “downregulation” and the RHOB expression (hPSC-EC; [4]) was “Downregulation”. The “SMAD6 (TGFß antagonist) expression” value (hPSC-EC; [4]) was “inducing”, the “expression of KDR (VEGFR2) and PECAM1 (CD31)” value (hPSC-EC; [4]) was “did not change” and the “expression of Wnt target genes (AXIN2, APCDD1, TNFRSF19) and receptors for Wnt FZD4 and LRP1” value (hPSC-EC; [4]) was “upregulation”. For the same compound, the “expression of antagonists of BMP signaling (BMPER, GREM2 and GDF6)” value (hPSC-EC; [4]) was “Most striking upregulation”, the “expression of inflammation genes (NFATC2, JAK1, JAK3 and ICAM1)” value (hPSC-EC; [4]) was “downregulate” and the “expression of other tight junctions or regulators of tight junctions (MARVELD3, GJA4, GJA5, IFITM3)” value (hPSC-EC; [4]) was “Upregulation”. For the same compound, the TGFß pathway regulation (hPSC-EC; RNA-seq / GSEA Hallmarks MsigDB) was “most potent compound”, the “expression of SOX17 and KLF4” value (hPSC-EC; RNA-seq after treatment) was “Induction” and the “VEGFR1 (FLT1) expression” value (hPSC-EC; RNA-seq, data not shown) was “upregulated”. For the same compound, the “expression of angiogenesis related genes (ESM1, ANGPTL4 and PPARGC1A)” value (hPSC-EC; RNA-seq, data not shown) was “most potent compound in downregulating”, the “rescue of TBI, impedance real time measurement” value (hPSC-ECs (GFP+ cells); 10 μM, co-treatment with 50 ng/mL VEGFA, GFP+ cells) was “rescues the loss-of TBI induced by VEGFA treatment” and the “effect on EC barrier in co-application” value (hPSC-ECs (GFP+ cells); VEGFA 50 ng/mL) was “strong EC barrier promoting effect”. The “inhibition activity on BMPR1B, large kinase panel” value (BMPR1B) was “weaker inhibition activity” and the “inhibitory activity on TGFBR2, large kinase panel” value (TGFBR2 [3]) was “strong inhibitory activity”.
For `Cc1cccc(-c2[nH]c(C(C)(C)C)nc2-c2ccc3c(c2)OCO3)n1` [SB505124], the “effect on EC barrier in co-application” value (hPSC-ECs (GFP+ cells); VEGFA 50 ng/mL) was “partial effect”.
`NC(=O)c1ccc(-c2nc(-c3ccc4c(c3)OCO4)c(-c3ccccn3)[nH]2)cc1` [SB431542, 4-(4-Benzo[1,3]dioxol-5-yl-5-pyridin-2-yl-1H-imidazol-2-yl)-benzamide] was tested, and the “effect on EC barrier in co-application” value (hPSC-ECs (GFP+ cells); VEGFA 50 ng/mL) was “no effect”.
